Biological target: T1, human PAR4 (Homo sapiens, UniProt Q96RI0)
T1 construct: expressed in transfected cells; host or cells: HEK293 PAR4 Clone 1.2A (BMS Arctic ID 383940)
T1 sequence (Q96RI0 18-385): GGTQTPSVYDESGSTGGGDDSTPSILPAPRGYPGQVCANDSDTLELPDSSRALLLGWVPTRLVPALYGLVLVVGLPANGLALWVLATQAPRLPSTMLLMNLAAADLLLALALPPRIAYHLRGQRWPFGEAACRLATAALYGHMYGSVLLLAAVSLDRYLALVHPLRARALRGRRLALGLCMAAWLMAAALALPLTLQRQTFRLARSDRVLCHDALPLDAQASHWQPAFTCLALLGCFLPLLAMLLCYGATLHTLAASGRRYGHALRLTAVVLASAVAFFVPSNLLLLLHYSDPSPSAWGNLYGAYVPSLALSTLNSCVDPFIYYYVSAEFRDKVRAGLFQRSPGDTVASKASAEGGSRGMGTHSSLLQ
Test: PAR4 FLIPR assay: antagonism of agonist-peptide-induced calcium mobilization in PAR4-expressing HEK293 cells
Assay type: cell-based
Conditions: H-Ala-Phe(4-F)-[…]NH2-induced intracellular calcium mobilization, 11-point curves

Structure (SMILES)	IC50
COc1cnc2c(-c3nc4cc(F)c(O[C@@H](C)[C@@H](C)OC(=O)Nc5ccc6[nH]c(=O)oc6c5)nc4s3)cc(Cl)cc2c1 [Example 777, (2R,3S)-3-((2-(6-chloro-3-methoxyquinolin-8-yl)-6-fluorothiazolo[5,4-b]pyridin-5-yl)oxy) butan-2-yl (2-oxo-2,3-dihydrobenzo[d]oxazol-6-yl)carbamate]	8.6 nM
COc1cnc2c(-c3nc4cc(F)c(O[C@@H](C)[C@@H](C)OC(=O)Nc5ccnc(OCCC(C)(C)O)c5)nc4s3)cc(Cl)cc2c1 [Example 778, (2R,3S)-3-((2-(6-chloro-3-methoxyquinolin-8-yl)-6-fluorothiazolo[5,4-b]pyridin-5-yl)oxy) butan-2-yl (2-(3-hydroxy-3-methylbutoxy)pyridin-4-yl)carbamate]	3.4 nM
COc1cnc2c(-c3nc4cc(F)c(O[C@@H](C)[C@@H](C)OC(=O)Nc5ccc(OCCO)nc5)nc4s3)cc(Cl)cc2c1 [Example 779, (2R,3S)-3-((2-(6-chloro-3-methoxyquinolin-8-yl)-6-fluorothiazolo[5,4-b]pyridin-5-yl)oxy) butan-2-yl (6-(2-hydroxyethoxy)pyridin-3-yl)carbamate]	3.3 nM
COc1cnc2c(-c3nc4cc(F)c(O[C@@H](C)[C@@H](C)OC(=O)Nc5ccnc(OCCO)c5)nc4s3)cc(Cl)cc2c1 [Example 780, (2R,3S)-3-((2-(6-chloro-3-methoxyquinolin-8-yl)-6-fluorothiazolo[5,4-b]pyridin-5-yl)oxy) butan-2-yl (2-(2-hydroxyethoxy)pyridin-4-yl)carbamate]	5 nM
COc1cnc2c(-c3nc4cc(F)c(O[C@@H](C)[C@@H](C)OC(=O)Nc5ccc(CCO)nc5)nc4s3)cc(Cl)cc2c1 [Example 781, (2R,3S)-3-((2-(6-chloro-3-methoxyquinolin-8-yl)-6-fluorothiazolo[5,4-b]pyridin-5-yl)oxy) butan-2-yl (6-(2-hydroxyethyl)pyridin-3-yl)carbamate]	6 nM
COc1cnc2c(-c3nc4cc(F)c(O[C@@H](C)[C@@H](C)OC(=O)Nc5cncc(F)c5)cc4s3)cc(Cl)cc2c1 [Example 782, (2R,3S)-3-((2-(6-chloro-3-methoxyquinolin-8-yl)-5-fluorobenzo[d]thiazol-6-yl)oxy)butan-2-yl (5-fluoropyridin-3-yl)carbamate]	2.7 nM
COc1cnc2c(-c3nc4cc(F)c(O[C@@H](C)[C@@H](C)OC(=O)Nc5ccc(C(F)(F)F)nc5)cc4s3)cc(Cl)cc2c1 [Example 783, (2R,3S)-3-((2-(6-chloro-3-methoxyquinolin-8-yl)-5-fluorobenzo[d]thiazol-6-yl)oxy)butan-2-yl (6-(trifluoromethyl)pyridin-3-yl)carbamate]	4.2 nM
COc1cnc2c(-c3nc4cc(F)c(O[C@@H](C)[C@@H](C)OC(=O)Nc5ccc(OC)nc5)cc4s3)cc(Cl)cc2c1 [Example 784, (2R,3S)-3-((2-(6-chloro-3-methoxyquinolin-8-yl)-5-fluorobenzo[d]thiazol-6-yl)oxy)butan-2-yl (6-methoxypyridin-3-yl)carbamate]	2.8 nM
COc1cncc(NC(=O)O[C@H](C)[C@H](C)Oc2cc3sc(-c4cc(Cl)cc5cc(OC)cnc45)nc3cc2F)c1 [Example 785, (2R,3S)-3-((2-(6-chloro-3-methoxyquinolin-8-yl)-5-fluorobenzo[d]thiazol-6-yl)oxy)butan-2-yl (5-methoxypyridin-3-yl)carbamate]	3.5 nM
COc1cnc2c(-c3nc4cc(F)c(O[C@@H](C)[C@@H](C)OC(=O)Nc5cncc(C#N)c5)cc4s3)cc(Cl)cc2c1 [Example 786, (2R,3S)-3-((2-(6-chloro-3-methoxyquinolin-8-yl)-5-fluorobenzo[d]thiazol-6-yl)oxy)butan-2-yl (5-cyanopyridin-3-yl)carbamate]	2.2 nM
COc1cnc2c(-c3nc4cc(F)c(O[C@@H](C)[C@@H](C)OC(=O)Nc5cnc(C)c(C)c5)cc4s3)cc(Cl)cc2c1 [Example 787, (2R,3S)-3-((2-(6-chloro-3-methoxyquinolin-8-yl)-5-fluorobenzo[d]thiazol-6-yl)oxy)butan-2-yl (5,6-dimethylpyridin-3-yl)carbamate]	2.9 nM

— patent US12060347B2 (BRISTOL-MYERS SQUIBB COMPANY, priority 2016, dated 2024)
